Laboratory results taken from patent publication US8410309B2, “Phenoxy carboxylic acid compounds and compositions for delivering active agents” (Emisphere Technologies, Inc., priority 1999, dated 2013).
Several values for one entry are separate records, joined by “and”; a condition that tells them apart may be missing. Equal values may be shown once. Marks after values point to notes of the source that are not given here.

Experiments:
[1] = Interferon oral delivery, serum IFN by immunoassay; type: in vivo, Sprague-Dawley rats; details: rats, 1 ml/kg
Description: Dosing solutions of delivery agent compound and human interferon (IFN) were prepared in deionized water. […] This mixture was vortexed and placed in a sonicator (about 37° C.). The pH was adjusted to about 7.0 to 8.5 with aqueous NaOH. The mixture was vortexed to produce a uniform suspension or solution, also using sonication and heat if necessary.
(§1) The typical dosing and sampling protocols were as follows.
Serum IFN concentrations were quantified using Cytoscreen Immunoassay Kit for human IFN-alpha (catalog # KHC4012 from Biosource International, Camarillo, Calif.). Previous studies indicated baseline values of about zero.

[2] = Insulin oral delivery, serum human insulin by ELISA; details: rats
Description: Oral dosing (PO) compositions of delivery agent compound and human zinc insulin (minimum 26 IU/mg available from Calbiochem—Novabiochem Corp, La Jolla, Calif.) were prepared in deionized water. […] The pH was adjusted to about 7 to 8.5 with NaOH or HCl. […] The final delivery agent compound dose, insulin dose and dose volume amounts are listed below in Table 8.
as §1
Serum insulin levels were determined with an Insulin ELISA Test Kit (Kit # DSL-10-1600 from Diagnostic Systems Laboratories, Inc., Webster, Tex.), modifying the standard protocol in order to optimize the sensitivity and linear range of the standard curve for the volumes and concentrations of the samples used in the present protocol. […] The five values for each time point were averaged and the results plotted as serum insulin concentration versus time.

[3] = Cromolyn oral delivery, serum cromolyn by HPLC; type: in vivo, Sprague-Dawley rats; details: rats, delivery agent compound dose 200 mg/kg, cromolyn dose 25 mg/kg, in µg/mL (unit assumed)
Description: Dosing solutions containing a delivery agent compound (prepared as in Example 1) and cromolyn, disodium salt (cromolyn)(from Sigma Chemical Co., St. Louis, Mo.) were prepared in deionized water. […] This mixture was vortexed and placed in a sonicator (about 37° C.). The pH was adjusted to about 7-7.5 with aqueous NaOH. […] The mixture was vortexed to produce a uniform solution, also using sonication and heat if necessary. The delivery agent compound solution was mixed with cromolyn from a stock solution (175 mg cromolyn/ml in deionized water, pH adjusted, if necessary, with NaOH or HCl to about 7.0, stock solution stored frozen wrapped in foil, then thawed and heated to about 30° C. before using). The mixture was vortexed to produce a uniform solution, also using sonication and heat if necessary. The pH was adjusted to about 7-8 with aqueous NaOH. The solution was then diluted with water to the desired volume (usually 2.0 ml) and concentration and stored wrapped in foil before use.
as §1
Blood samples were collected via the tail artery, typically at 0.25, 0.5, 1.0 and 1.5 hours after dosing. Serum cromolyn concentrations were measured by HPLC. Samples were prepared as follows: 100 μl serum was combined with 100 μl 3N HCl and 300 μl ethyl acetate in an eppendorf tube. The tube was vortexed for 10 minutes and then centrifuged for 10 minutes at 10,000 rpm. 200 μl ethyl acetate layer was transferred to an eppendorf tube containing 67 μl 0.1 M phosphate buffer. The tube was vortexed for 10 minutes and then centrifuged for 10 minutes at 10,000 rpm. […] Previous studies indicated baseline values of about zero.

[4] = Daptomycin oral delivery, plasma daptomycin by HPLC; type: in vivo, Sprague-Dawley rats; details: rats, delivery agent compound dose 200 mg/kg, daptomycin dose 50 mg/kg, volume dose 1 mL/kg
Description: Dosing solutions containing a delivery agent compound and daptomycin (Cubist Pharmaceuticals, Cambridge, Mass.) were prepared in 0.9% normal saline. […] This mixture was vortexed and placed in a sonicator (about 37° C.). The pH was adjusted to about 7.0-7.5 with aqueous HCl or NaOH. […] The mixture was vortexed to produce a uniform solution, also using sonication if necessary. The delivery agent compound solution was mixed with daptomycin from a stock solution (200 mg daptomycin/mL in 0.9% normal saline and the pH adjusted, if necessary, to between 6.0-7.0 with NaOH or HCl). The stock solution was stored frozen (−20° C.) wrapped in foil, then thawed and warmed gradually to about 25° C. before using. The delivery agent-daptomycin mixture was vortexed at low speed to produce a uniform solution. The pH was adjusted to about 7.0-7.5 with aqueous NaOH. The solution was then diluted with 0.9% normal saline to the desired volume (usually 2.0 ml) and concentration and stored wrapped in foil before use.
as §1
Heparinized rat blood samples were collected via the ventral tail artery, typically at 0.25, 0.5, 0.75, 1.0, 2.0, and 4.0 hours after dosing, and stored on ice. Blood samples were then spun (centrifuged) at 11,500 rpm for 4 minutes at 4° C. to obtain the plasma (supernatant), which was stored at −70° C. The plasma daptomycin concentrations were measured by isocratic reversed phase HPLC, keeping samples at 4° C. during analysis. Blank plasma studies show baseline values of zero.
Daptomycin blood concentrations results from the individual animals in each dosage group were averaged for each time point.

[5] = Salmon calcitonin (sCT) oral delivery, serum sCT by EIA; details: rats, delivery agent compound dose 150 mg/kg, sCT dose 30 μg/kg
[6] = Parathyroid hormone (PTH 1-34) oral/intracolonic delivery, serum PTH by radioimmunoassay; details: rats, oral (PO); delivery agent compound dose 100 mg/kg, PTH dose 200 μg/kg, volume dose 1 ml/kg
Description: Oral gavage (PO) and/or intracolonic (IC) dosing solutions of delivery agent compound and human parathyroid hormone residues 1-34 (PTH) in deionized water were prepared. A solution of the compound was made either with the sodium salt of the delivery agent compound or by converting the free acid to its sodium salt.
The typical dosing and sampling protocols were as follows. Male Sprague-Dawley rats weighing between 200-250 g were fasted for 24 hours and administered ketamine (44 mg/kg) and chlorpromazine (1.5 mg/kg) 15 minutes prior to dosing and again as needed to maintain anesthesia. A dosing group of five animals was administered one of the dosing solutions. For oral gavage (PO), an 11 cm Rusch 8 French catheter was adapted to a 1 ml syringe with a pipette tip. The syringe was filled with dosing solution by drawing the solution through the catheter, which was then wiped dry. The catheter was placed down the esophagus leaving 1 cm of tubing past the incisors. The dosing solution was administered by pressing the syringe plunger. For intracolonic (IC) dosing, a 7.5 cm Rusch catheter tube (French 8 or 6) was adapted to a syringe with an Eppendorf pipette tip. The syringe was filled with the dosing solution by drawing the solution through the catheter tube. The catheter tube was wiped dry. K-Y jelly was applied to the tip, avoiding contact with the eye of the tube, and the tube was inserted into the colon through the anus until the tube was no longer visible. The dosing solution was injected by pressing the syringe plunger, and the tube was removed.
Previous studies indicated baseline values of about zero. Results from the animals in each group were averaged for each time point.

[7] = Recombinant human growth hormone (rhGH) oral delivery, serum rhGH by immunoassay; details: oral gavage, rats, delivery agent compound 200 mg/kg, rhGH 3 mg/kg
Description: Oral gavage (PO) dosing solutions of delivery agent compound and rhGH in phosphate buffer were prepared by mixing. A solution of the delivery agent compound was made either with the sodium salt of the delivery agent compound or by converting the free acid to its sodium salt.
The typical dosing and sampling protocols were as follows. Male Sprague-Dawley rats weighing 200-250 g were fasted for 24 hours and administered ketamine (44 mg/kg) and chlorpromazine (1.5 mg/kg) 15 minutes prior to dosing and again as needed to maintain anesthesia. A dosing group of five animals was administered one of the dosing solutions. An 11 cm Rusch 8 French catheter was adapted to a 1 ml syringe with a pipette tip. The syringe was filled with dosing solution by drawing the solution through the catheter, which was then wiped dry. The catheter was placed down the esophagus leaving 1 cm of tubing past the incisors. The dosing solution was administered by pressing the syringe plunger.
Blood samples were collected serially from the tail artery typically at time=15, 30, 45, 60 and 90 minutes. The five samples from each time period were pooled (except for those samples for which standard deviation (SD) and standard error (SE) are reported). Serum rHGH concentrations were quantified by an rHGH immunoassay test kit (Kit # K1F4015 from Genzyme Corporation Inc., Cambridge, Mass.).

[8] = Heparin oral/intracolonic delivery, clotting time by activated partial thromboplastin time (APTT); type: in vivo, Sprague-Dawley rats; details: rats, baseline about 20 seconds
Description: Oral gavage (PO) and/or intracolonic (IC) dosing solutions containing a delivery agent compound and heparin sodium USP were prepared in 25% aqueous propylene glycol. […] This dry mixture was dissolved in 25% v/v aqueous propylene glycol, vortexed, and placed in a sonicator (about 37° C.). The pH was adjusted to about 7 (6.5 to 8.5) with aqueous NaOH (2N). The dosing solution was sonicated to produce a clear solution. The final volume was adjusted to about 3.0 ml.
(§2) The typical dosing and sampling protocols were as follows. […] The dosing solution was expressed slowly into the colon by pressing the syringe plunger.
Citrated blood samples were collected by cardiac puncture following the administration of ketamine (88 mg/kg), typically at 0.25, 0.5, 1.0 and 1.5 hours after dosing. Heparin absorption was verified by an increase in clotting time measured by the activated partial thromboplastin time (APTT) according to the method of Henry, J. B., Clinical Diagnosis and Management by Laboratory Methods, Philadelphia, Pa., W.B. Saunders (1979). Previous studies indicated baseline values of about 20 seconds.

[9] = Low molecular weight heparin (LMWH) oral/intracolonic delivery, plasma LMWH by anti-Factor Xa assay; type: in vivo, Sprague-Dawley rats; details: IC, rats, delivery agent compound 50 mg/kg, LMWH 750 IU/kg, 1 ml/kg
Description: Oral dosing (PO) and/or intracolonic (IC) compositions containing a delivery agent compound and low molecular weight heparin (LMWH) were prepared in 25% aqueous propylene glycol. […] Typically, the delivery agent compound and LMWH (Parnaparin, 91 IU/mg average molecular weight about 5,000, available from Opocrin, Modena, Italy) (typically 90-105 IU/mg, average molecular weight about 5,000) were mixed by vortex as dry powders. This dry mixture was dissolved in 25% v/v aqueous propylene glycol, vortexed, and placed in a sonicator (37° C.) to produce a clear solution. The pH was adjusted to about 7 (6.5-8.5) with 2N aqueous NaOH. The dosing solution was sonicated to produce a clear solution. The final volume was adjusted to 3.0 ml.
as §2
Citrated blood samples were collected by cardiac puncture following the administration of ketamine (88 mg/kg), typically at 0.5, 1.0, 2.0, 3.0 and 4.0 hours after dosing. LMWH absorption was verified by an increase in plasma LMWH measured by the anti-Factor Xa assay CHROMOSTRATE™ Heparin anti-Xa assay (available from Organon Teknika Corporation, Durham, N.C.). […] The peak of these mean plasma LMWH concentrations is reported below in Table 5.

[10] = Insulin pulmonary delivery, serum insulin by ELISA, ratio to insulin-alone control; type: in vivo, Sprague-Dawley rats; details: pulmonary, rats; volume 0.4 ml/kg, delivery agent compound 0.03 mg/kg, insulin 0.3 mg/kg (so in the source)
Description: Dosing compositions of delivery agent compound and human insulin in water were prepared. Typically, to 1.5 mg of delivery agent compound was added deionized water to bring the volume to 1.0 ml, and the solution was vortexed. […] The pH was adjusted to between about 7.0 to 8.5 with NaOH or HCl. […] The final delivery agent compound dose, insulin dose and volume dose amounts are listed below in Table 9.
The typical dosing and sampling protocols were as follows. […] A control group of five animals was dosed insulin alone. A tracheal instillator for rodents, equipped with light (available from Penn Century, Inc., Pittsburgh, Pa.) was filled with dosing solution and inserted down the throat until the needle went into the trachea (confirmed visually). The dosing solution was administered by pressing the plunger.
Blood samples from each animal were collected serially from the tail artery, typically at 5, 15, 30, 60 and 120 minutes after dosing. […] The ratio of the area under the curve (AUC) for the test group versus that of the control group is reported below. The ratio of the maximum serum insulin concentration (Cmax) for the test group versus that of the control group is also reported below.

[11] = delivery agent compound 200 mg/kg, IFN 1 mg/kg
[12] = delivery agent compound 100 mg/kg, insulin 3 mg/kg, 0.5 ml/kg
[13] = IC (intracolonic), delivery agent compound 50 mg/kg, heparin 25 mg/kg, volume dose 1 ml

| Mean Peak Serum [IFN] ± SD [1, 11] | Mean Peak serum [cromolyn] ± SD (SE) ([3]; volume dose 1 ml/kg) | Mean plasma Cmax [daptomycin] ± SD [4] | Mean Peak Serum [PTH] (pg/mL) ± SD [6] | Mean Peak Serum sCT (pg/ml ± SD) (SE) ([5]; dose volume 1 (ml)) | Compound | Mean Peak APTT ± SD [8, 13] | further results |
| --- | --- | --- | --- | --- | --- | --- | --- |
| 6.0324 ± 2.8 ng/mL | 0.38 ± 0.15 | 9500 ± 5490 ng/mL | – | – | O=C(O)CCCCCOc1ccccc1 [Compound 15] | – | Mean Peak Serum [INS] ± SD ([2]; delivery agent compound 100 mg/kg, insulin 3 mg/kg, 1 ml/kg): 1332.2 ± 1906.4 μU/ml; Mean Peak Serum sCT (pg/ml ± SD) (SE) ([5]; dose volume 2 (ml)): 116 ± 88 pg/mL |
| – | – | – | 538 ± 328 pg/mL | – | CC(C)NC(=O)c1ccccc1OCCCCCCCC(=O)O [Compound 34] | – | Mean Peak Serum sCT (pg/ml ± SD) (SE) ([5]; dose volume 1 (ml), 150 mg/kg): 103 ± 72 pg/mL and 137 ± 178 pg/mL |
| – | – | 5070 ± 610 ng/mL | – | – | O=C(O)c1ccc(COc2ccccc2O)cc1 [Compound 2] | 48.788 ± 32.79 s | Mean Peak Plasma LMWH Concentration ± SD [9]: 1.038 ± 0.338 IU/ml; Mean Peak Serum sCT (pg/ml ± SD) (SE) ([5]; dose volume 1 (ml), 150 mg/kg): 628 ± 221 pg/mL and 449 ± 550 pg/mL and 320 ± 348 pg/mL |
| 1.1 ± 0.85 ng/mL | 0.56 ± 0.39 | – | – | 62 ± 99 pg/mL | O=C(O)CCCCCCCOc1ccc(O)cc1 [Compound 47, (4-hydroxyphenyl)-8-oxyoctanoic acid] | 370.3 ± 97.8 s | Mean Ratio of AUC for insulin + compound versus AUC for insulin alone [10]: 0.63; Mean Peak serum [cromolyn] ± SD (SE) ([3]; volume dose 2 ml/kg): 0.55 ± 0.12; Mean Peak Serum [rhGH] ([7]; volume dose 2 ml): 9.9 ± 22.1 ng/mL |

More lines, now with the values behind:

| Compound | Mean Peak Serum [IFN] ± SD [1, 11] | Mean Peak serum [cromolyn] ± SD (SE) ([3]; volume dose 1 ml/kg) | Mean plasma Cmax [daptomycin] ± SD [4] | Mean Peak Serum [PTH] (pg/mL) ± SD [6] | Mean Peak Serum sCT (pg/ml ± SD) (SE) ([5]; dose volume 1 (ml)) | Mean Peak APTT ± SD [8, 13] | further results |
| --- | --- | --- | --- | --- | --- | --- | --- |
| CCNC(=O)c1ccccc1OCCCCCCCC(=O)O [Compound 33, 8-(2-(N-ethylbenzamide)oxy)octanoic acid] | – | – | – | 837 ± 347 pg/mL | 96 ± 209 pg/mL | – | Mean Peak Serum [INS] ± SD [2, 12]: 58.13 ± 52.86 μU/ml; Mean Peak Serum [rhGH] ([7]; volume dose 1 ml): 10.1 ng/mL and 6.9 ng/mL |
| O=C(O)CCCCCOc1ccccc1O [Compound 5] | – | 0.63 ± 0.47 | 7082 ± 3860 ng/mL | – | 349 ± 348 pg/mL | – | Mean Peak APTT ± SD ([8]; PO (oral gavage), delivery agent compound 300 mg/kg, heparin 100 mg/kg, volume dose 3 ml): 135.7 ± 17.3 s; Mean Peak Serum [IFN] ± SD ([1]; delivery agent compound 50 mg/kg, IFN 0.5 mg/kg): 1.54 ± 0.26 ng/mL and 2.1 ± 0.95 ng/mL |
| O=C(O)CCCCCCCOc1cccc(O)c1 [Compound 43] | 1 ± 2.1 ng/mL and 1.206 ng/mL | – | – | – | 50 ± 71 pg/mL | – | Mean Ratio of AUC for insulin + compound versus AUC for insulin alone [10]: 1.44; AUC (Total AUC(0→∞)) of daptomycin [4]: 4555* μg-min/mL and 2895* μg-min/mL and 2820* μg-min/mL |
| CC(=O)c1ccccc1OCCCCCC(=O)O [Compound 11] | – | – | 13270 ± 13430 ng/mL | – | 526 ± 415 pg/mL | 39.53 ± 8.25 s | Mean Peak Plasma LMWH Concentration ± SD [9]: 0.91 ± 0.414 IU/ml; Mean Peak Serum [rhGH] ([7]; volume dose 1 ml): 35.4 ng/mL |
| CNC(=O)c1ccccc1OCCCCCCCC(=O)O [Compound 31] | – | – | – | 460 ± 194 pg/mL | – | 47 ± 23.1 s | Mean Peak Plasma LMWH Concentration ± SD ([9]; 50 mg/kg): 0.47 ± 0.287 IU/ml and 0.47 ± 0.332 IU/ml; Mean Peak Serum [INS] ± SD [2, 12]: 21.26 ± 6.22 μU/ml |
| O=Cc1ccccc1OCCCCCCCC(=O)O [Compound 61] | – | 0.54 ± 0.39 and 0.57 ± 0.36 | – | – | – | – | Mean Peak Serum [INS] ± SD ([2]; delivery agent compound 200 mg/kg, insulin 0.5 mg/kg, 1 ml/kg): 58.99 ± 27.15 μU/ml; Mean Peak serum [cromolyn] ± SD (SE) ([3]; volume dose 2 ml/kg): 0.39 ± 0.21 |
